Experiments:
Format in all cases: physicochemical
[1] = Drug shielding effect on Nylon 12 film, PTX release in PBS; conditions: PBS pH 7.4, 37° C.
Description: (§1) Compounds 1, 7, and 14 (200 mg/mL) were dissolved in THF. PTX was added to each solution to make a 25 mg/mL solution. Nylon 12 film sheets were cut 1×1 cm size, blend solution was drop cast on the film sheet, dried in a 50° C. flow oven for 1 day. PTX alone was prepared the same way and used as the control. PBS pH 7.4 was pre-warmed to 37° C. Test articles and control articles were incubated in media (4 mL) at 37° C. for 10, 30, 60 and 120 minutes. At the end of each time point, media was exchanged and at the end of the study, the films were stripped with organic solvent, centrifuged, the supernatant collected, and solvent dried overnight at 60° C. The assessment of the drug shielding effect was analyzed by RP-HPLC with benzonitrile as the internal standard. 10 minute PTX release in PBS (ng/mL): Compound 1: 107.6, Compound 7: 79.7, Compound 14: 15.4, PTX alone: 651. The assessment of oligofluoro adhesion on film surface was done by NMR. A calibration curve for each compound was generated by NMR. Stripped coating was re-suspended in CDCl3 (1 mL) and NMR was performed. Quantity of remaining material was back calculated from NMR integration area. Percent remaining material after 120 minute incubation in PBS: Compound 1: 82.1, Compound 7: 85.5. Similar assessment of drug shielding on films was done with porcine whole blood. […]

[2] = Drug shielding on Nylon 12 film, PTX release in porcine whole blood
Description: as §1

[3] = Oligofluoro as solubilizing agent, drug release from coated nylon films in water; conditions: drug at 4 wt %, nylon film, water 24 hours

10 minute PTX release in PBS [1]: 651 ng/mL | 10 minute PTX release in blood [2]: 75.6% | Percentage drug released in water [3]: 11%
Structure (SMILES): CC(=O)O[C@H]1C(=O)[C@@]2(C)[C@H]([C@H](OC(=O)c3ccccc3)[C@]3(O)C[C@H](OC(=O)[C@H](O)[C@@H](NC(=O)c4ccccc4)c4ccccc4)C(C)=C1C3(C)C)[C@]1(OC(C)=O)CO[C@@H]1C[C@@H]2O [PTX, paclitaxel]
